Data set [1] is described as follows: Half life in rat liver microsomes. The format is ADME, Microsome. Background: Liver microsomes are vesicles of endoplasmic reticulum, rich in cytochrome P450 enzymes.
A short description of data set [2]: Half life in mouse liver microsomes. It is filed as ADME, Microsome.
Data set [3] can be described thus: Half life in human liver microsomes. The format is ADME, Microsome.
In data set [4] the target is T1, Nuclear receptor ROR-gamma (Homo sapiens, UniProt P51449).
T1 sequence (P51449 whole entry): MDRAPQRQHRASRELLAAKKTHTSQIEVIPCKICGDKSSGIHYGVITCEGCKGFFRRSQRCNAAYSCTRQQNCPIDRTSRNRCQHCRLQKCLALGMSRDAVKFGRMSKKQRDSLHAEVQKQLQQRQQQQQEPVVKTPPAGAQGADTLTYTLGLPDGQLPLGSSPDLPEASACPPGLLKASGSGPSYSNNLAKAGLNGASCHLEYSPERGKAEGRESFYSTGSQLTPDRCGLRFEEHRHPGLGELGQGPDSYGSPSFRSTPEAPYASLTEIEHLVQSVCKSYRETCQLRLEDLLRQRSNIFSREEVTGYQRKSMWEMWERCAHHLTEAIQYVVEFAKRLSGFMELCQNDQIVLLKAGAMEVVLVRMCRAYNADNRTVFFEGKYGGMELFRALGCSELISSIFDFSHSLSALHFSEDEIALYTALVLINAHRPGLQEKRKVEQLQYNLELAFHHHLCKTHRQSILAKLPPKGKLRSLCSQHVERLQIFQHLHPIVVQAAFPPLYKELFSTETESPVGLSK
Put plainly: Inverse agonist activity at Gal4-fused RORgammat LBD (unknown origin) by reporter gene assay. For orientation: A reporter such as luciferase makes a cellular process visible.

The target of data set [5] is T1, Nuclear receptor ROR-gamma. Put plainly: Inverse agonist activity at RORgammat in human whole blood assessed as IL-17 production by ELISA. It is filed as tissue-based.

pEC50: −log10 of the molar value. A value given as a limit tells only on which side of the number the result lay.

A word on the half-life: it is how long it takes for the measured level to halve. The term pEC50 denotes the EC50 on a negative log10 scale, so that one unit is a factor of ten.

In the case of `[2H]C([2H])([2H])N1C(=O)[C@H](F)C[C@H]1C(=O)N1CC[C@@]2(S(=O)(=O)c3ccc(F)cc3)c3ccc(C(F)(C(F)(F)F)C(F)(F)F)cc3CC[C@@H]12`, the half-life in data set [1], in data set [2] and in data set [3] was above 120 min in each case.

Turning to `O=C1[C@H](F)C[C@@H](C(=O)N2CC[C@@]3(S(=O)(=O)c4ccc(F)cc4)c4ccc(C(F)(C(F)(F)F)C(F)(F)F)cc4CC[C@@H]23)N1CCO`, the half-life in data set [1] is 36 min; in data set [2], 60 min; in data set [3], above 120 min.

Turning to `O=C(O)CN1C(=O)[C@H](F)C[C@H]1C(=O)N1CC[C@@]2(S(=O)(=O)c3ccc(F)cc3)c3ccc(C(F)(C(F)(F)F)C(F)(F)F)cc3CC[C@@H]12`, the pEC50 in data set [4] was 5.82.

Regarding `N#CCCN1C(=O)[C@H](F)C[C@H]1C(=O)N1CC[C@@]2(S(=O)(=O)c3ccc(F)cc3)c3ccc(C(F)(C(F)(F)F)C(F)(F)F)cc3CC[C@@H]12`, the half-life in data set [1] is 45 min; in data set [2], 79 min; in data set [3] it was above 120 min. Also, the negative logarithm of the EC50 (pEC50) was 7.52 in data set [5] and 7.74 in data set [4].

Regarding `[2H]C([2H])([2H])N1C(=O)C(F)(F)C[C@H]1C(=O)N1CC[C@@]2(S(=O)(=O)c3ccc(F)cc3)c3ccc(C(F)(C(F)(F)F)C(F)(F)F)cc3CC[C@@H]12`, the figures for the half-life in data set [1], in data set [2] and in data set [3] were 58 min, 88 min and 57 min, respectively.

Take `CC(C)N1C(=O)[C@H](F)C[C@H]1C(=O)N1CC[C@@]2(S(=O)(=O)c3ccc(F)cc3)c3ccc(C(F)(C(F)(F)F)C(F)(F)F)cc3CC[C@@H]12`: the half-life in data set [1] worked out at 45 min; in data set [2], 52 min; in data set [3], 50 min.

With `CN1C(=O)[C@H](F)C[C@H]1C(=O)N1CC[C@@]2(S(=O)(=O)c3ccc(F)cc3)c3ccc(C(F)(C(F)(F)F)C(F)(F)F)cc3CC[C@@H]12`, the half-life in data set [1] is 55 min; in data set [2], 75 min; in data set [3], above 120 min.

Regarding `CN1C(=O)[C@@H](O)C[C@H]1C(=O)N1CC[C@@]2(S(=O)(=O)c3ccc(F)cc3)c3ccc(C(F)(C(F)(F)F)C(F)(F)F)cc3CC[C@@H]12`, the half-life in data set [1] was found to be 10 min; in data set [2] it was 25 min; in data set [3], 27 min.

In the case of `O=C1[C@H](F)C[C@@H](C(=O)N2CC[C@@]3(S(=O)(=O)c4ccc(F)cc4)c4ccc(C(F)(C(F)(F)F)C(F)(F)F)cc4CC[C@@H]23)N1Cc1ccc(F)cc1`, the half-life in data set [1] was 35 min; in data set [2], 29 min; in data set [3], 24 min. The negative-log EC50 (pEC50) in data set [5] is 7.24; in data set [4], 8.15.

With `N#Cc1ccc(CN2C(=O)[C@H](F)C[C@H]2C(=O)N2CC[C@@]3(S(=O)(=O)c4ccc(F)cc4)c4ccc(C(F)(C(F)(F)F)C(F)(F)F)cc4CC[C@@H]23)cc1`, the half-life in data set [1] was determined as 61 min; in data set [2], 74 min; in data set [3], 58 min. Further, the pEC50 in data set [4] is 7.52.

On to `[2H]C([2H])([2H])N1C(=O)[C@@H](F)C[C@H]1C(=O)N1CC[C@@]2(S(=O)(=O)c3ccc(F)cc3)c3ccc(C(F)(C(F)(F)F)C(F)(F)F)cc3CC[C@@H]12`, for which the half-life was 48 min in data set [1], 85 min in data set [2] and above 120 min in data set [3].

Consider `CO[C@H]1C[C@@H](C(=O)N2CC[C@@]3(S(=O)(=O)c4ccc(F)cc4)c4ccc(C(F)(C(F)(F)F)C(F)(F)F)cc4CC[C@@H]23)N(C)C1=O`, for which the half-life in data set [1] was 43 min; in data set [2] it was 94 min; in data set [3], above 120 min.

As to `CN1C(=O)CC[C@H]1C(=O)N1CC[C@@]2(S(=O)(=O)c3ccc(F)cc3)c3ccc(C(F)(C(F)(F)F)C(F)(F)F)cc3CC[C@@H]12`, the half-life in data set [1] was above 120 min; in data set [2] it was 116 min; in data set [3] it was 87 min.

The values are drawn from ChEMBL document CHEMBL4665919, “Novel Tricyclic Pyroglutamide Derivatives as Potent RORγt Inverse Agonists Identified using a Virtual Screening Approach” (ACS Med Chem Lett, 2020).
